Measured values from the NIST ThermoML archive (doi:10.1021/je0502546).
Numbers after ± are expanded uncertainties.

Experiments:
[1] = xn = mol fraction of the nth substance listed; conditions: 101 kPa, Liquid; for viscosity: Capillary tube (Ostwald / Ubbelohde) method
[2] = refractive index (Na D-line) (dimensionless); xn = mol fraction of the nth substance listed; conditions: 101 kPa, Liquid, Standard Abbe refractometry
[3] = 101 kPa, Liquid; for viscosity: Capillary tube (Ostwald / Ubbelohde) method
[4] = refractive index (Na D-line) (dimensionless); conditions: 101.33 kPa, Liquid, Standard Abbe refractometry

What does the source list for `CCc1ccccc1` [ethylbenzene] + COc1ccccc1?
viscosity ([1]; 293.15 K, x2 = 0): 0.669 ± 0.006 mPa·s; mass density ([1]; 293.15 K, x2 = 0): 866.95 ± 0.22 kg/m3; viscosity ([1]; 303.15 K, x2 = 0): 0.596 ± 0.005 mPa·s; mass density ([1]; 303.15 K, x2 = 0): 858.01 ± 0.22 kg/m3; refractive index ([2]; 293.15 K, x2 = 0): 1.4957 ± 0.0007; refractive index ([2]; 303.15 K, x2 = 0): 1.4902 ± 0.0007

With `CCCc1ccccc1` [propylbenzene] as the compound, how does the mass density ([3]; 293.15 K) read?
Its mass density is 863.13 ± 0.39 kg/m3.

And the viscosity ([3]; 293.15 K)?
The viscosity was 0.855 ± 0.008 mPa·s.

What about the mass density ([3]; 303.15 K) of the same compound?
Its mass density is 854.71 ± 0.39 kg/m3.

And the viscosity ([3]; 303.15 K)?
The viscosity was 0.744 ± 0.007 mPa·s.

What about the refractive index ([4]; 293.15 K) of the same compound?
Its refractive index is 1.4916 ± 0.0007.

What about the refractive index ([4]; 303.15 K) of the same compound?
Its refractive index is 1.4858 ± 0.0007.

Which results are given for `CCCc1ccccc1` [propylbenzene] + COc1ccccc1?
viscosity ([1]; 293.15 K, x2 = 0): 0.855 ± 0.008 mPa·s; viscosity ([1]; 293.15 K, x2 = 0.1216): 0.857 ± 0.008 mPa·s; viscosity ([1]; 293.15 K, x2 = 0.2422): 0.862 ± 0.008 mPa·s; viscosity ([1]; 293.15 K, x2 = 0.3455): 0.874 ± 0.008 mPa·s; viscosity ([1]; 293.15 K, x2 = 0.4531): 0.892 ± 0.008 mPa·s; viscosity ([1]; 293.15 K, x2 = 0.5658): 0.915 ± 0.008 mPa·s; viscosity ([1]; 293.15 K, x2 = 0.6574): 0.94 ± 0.009 mPa·s; viscosity ([1]; 293.15 K, x2 = 0.7486): 0.971 ± 0.009 mPa·s; viscosity ([1]; 293.15 K, x2 = 0.8349): 1.005 ± 0.009 mPa·s; viscosity ([1]; 293.15 K, x2 = 0.916): 1.042 ± 0.009 mPa·s; mass density ([1]; 293.15 K, x2 = 0): 863.13 ± 0.39 kg/m3; mass density ([1]; 293.15 K, x2 = 0.1216): 876.73 ± 0.4 kg/m3; mass density ([1]; 293.15 K, x2 = 0.2422): 890.73 ± 0.4 kg/m3; mass density ([1]; 293.15 K, x2 = 0.3455): 903.18 ± 0.4 kg/m3; mass density ([1]; 293.15 K, x2 = 0.4531): 916.62 ± 0.41 kg/m3; mass density ([1]; 293.15 K, x2 = 0.5658): 931.23 ± 0.42 kg/m3; mass density ([1]; 293.15 K, x2 = 0.6574): 943.52 ± 0.42 kg/m3; mass density ([1]; 293.15 K, x2 = 0.7486): 956.19 ± 0.43 kg/m3; mass density ([1]; 293.15 K, x2 = 0.8349): 968.57 ± 0.43 kg/m3; mass density ([1]; 293.15 K, x2 = 0.916): 980.65 ± 0.44 kg/m3; viscosity ([1]; 303.15 K, x2 = 0): 0.744 ± 0.007 mPa·s; viscosity ([1]; 303.15 K, x2 = 0.1216): 0.748 ± 0.007 mPa·s; viscosity ([1]; 303.15 K, x2 = 0.2422): 0.752 ± 0.007 mPa·s; viscosity ([1]; 303.15 K, x2 = 0.3455): 0.758 ± 0.007 mPa·s; viscosity ([1]; 303.15 K, x2 = 0.4531): 0.77 ± 0.007 mPa·s; viscosity ([1]; 303.15 K, x2 = 0.5658): 0.79 ± 0.007 mPa·s; viscosity ([1]; 303.15 K, x2 = 0.6574): 0.812 ± 0.007 mPa·s; viscosity ([1]; 303.15 K, x2 = 0.7486): 0.84 ± 0.008 mPa·s; viscosity ([1]; 303.15 K, x2 = 0.8349): 0.87 ± 0.008 mPa·s; viscosity ([1]; 303.15 K, x2 = 0.916): 0.899 ± 0.008 mPa·s; mass density ([1]; 303.15 K, x2 = 0): 854.71 ± 0.39 kg/m3; mass density ([1]; 303.15 K, x2 = 0.1216): 868.36 ± 0.39 kg/m3; mass density ([1]; 303.15 K, x2 = 0.2422): 882.36 ± 0.4 kg/m3; mass density ([1]; 303.15 K, x2 = 0.3455): 894.78 ± 0.4 kg/m3; mass density ([1]; 303.15 K, x2 = 0.4531): 908.15 ± 0.41 kg/m3; mass density ([1]; 303.15 K, x2 = 0.5658): 922.67 ± 0.41 kg/m3; mass density ([1]; 303.15 K, x2 = 0.6574): 934.9 ± 0.42 kg/m3; mass density ([1]; 303.15 K, x2 = 0.7486): 947.46 ± 0.42 kg/m3; mass density ([1]; 303.15 K, x2 = 0.8349): 959.71 ± 0.43 kg/m3; mass density ([1]; 303.15 K, x2 = 0.916): 971.62 ± 0.43 kg/m3; refractive index ([2]; 293.15 K, x2 = 0): 1.4916 ± 0.0007; refractive index ([2]; 293.15 K, x2 = 0.1216): 1.4944 ± 0.0007; refractive index ([2]; 293.15 K, x2 = 0.2422): 1.4972 ± 0.0007; refractive index ([2]; 293.15 K, x2 = 0.3455): 1.4996 ± 0.0007; refractive index ([2]; 293.15 K, x2 = 0.4531): 1.5023 ± 0.0007; refractive index ([2]; 293.15 K, x2 = 0.5658): 1.5051 ± 0.0007; refractive index ([2]; 293.15 K, x2 = 0.6574): 1.5076 ± 0.0007; refractive index ([2]; 293.15 K, x2 = 0.7486): 1.5101 ± 0.0007; refractive index ([2]; 293.15 K, x2 = 0.8349): 1.5126 ± 0.0007; refractive index ([2]; 293.15 K, x2 = 0.916): 1.515 ± 0.0007; refractive index ([2]; 303.15 K, x2 = 0): 1.4858 ± 0.0007; refractive index ([2]; 303.15 K, x2 = 0.1216): 1.4886 ± 0.0007; refractive index ([2]; 303.15 K, x2 = 0.2422): 1.4914 ± 0.0007; refractive index ([2]; 303.15 K, x2 = 0.3455): 1.4939 ± 0.0007; refractive index ([2]; 303.15 K, x2 = 0.4531): 1.4966 ± 0.0007; refractive index ([2]; 303.15 K, x2 = 0.5658): 1.4995 ± 0.0007; refractive index ([2]; 303.15 K, x2 = 0.6574): 1.5019 ± 0.0007; refractive index ([2]; 303.15 K, x2 = 0.7486): 1.5045 ± 0.0007; refractive index ([2]; 303.15 K, x2 = 0.8349): 1.507 ± 0.0007; refractive index ([2]; 303.15 K, x2 = 0.916): 1.5095 ± 0.0007

Which mass density ([3]; 293.15 K) does the source give for `Cc1ccccc1` [toluene] here?
Its mass density is 866.88 ± 0.29 kg/m3.

And the viscosity ([3]; 293.15 K)?
Its viscosity is 0.588 ± 0.005 mPa·s.

What about the mass density ([3]; 303.15 K) of the same compound?
The mass density was 857.46 ± 0.29 kg/m3.

And the viscosity ([3]; 303.15 K)?
The viscosity was 0.523 ± 0.005 mPa·s.

And the refractive index ([4]; 293.15 K)?
The refractive index was 1.4962 ± 0.0006.

What about the refractive index ([4]; 303.15 K) of the same compound?
Its refractive index is 1.4914 ± 0.0006.

What does the source list for `Cc1ccccc1` [toluene] + COc1ccccc1?
viscosity ([1]; 293.15 K, x2 = 0): 0.588 ± 0.005 mPa·s; mass density ([1]; 293.15 K, x2 = 0): 866.88 ± 0.29 kg/m3; viscosity ([1]; 303.15 K, x2 = 0): 0.523 ± 0.005 mPa·s; mass density ([1]; 303.15 K, x2 = 0): 857.46 ± 0.29 kg/m3; refractive index ([2]; 293.15 K, x2 = 0): 1.4962 ± 0.0006; refractive index ([2]; 303.15 K, x2 = 0): 1.4914 ± 0.0006
